Assay results as given in US6436441B1, “Hydrogel-forming sustained-release preparation” (Yamanouchi Pharmaceutical Co., Ltd., priority 1992, dated 2002).

Settings: JP method, 25 ± 5° C.; the additive itself

O=C(CO)[C@@H](O)[C@H](O)[C@H](O)CO [D-Fructose]
Solubility (volume of water required for dissolving 1 gram): 1 mL
